Measurements: ChEMBL document CHEMBL1201862, “PubChem BioAssay data set” (2004)
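Test compounds were applied to cells in 96-well plates for 48 hours at 5 doses. At the GI50, growth is halved.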 Activity calls are given as the source filed them. Cut-off read from the data, not from the text of the source: active = GI50 up to about 1.1 µM and inactive = higher.

Legend:
Assay in all cases: growth of human tumour cells (NCI), 48 h
NCI-H226 = system: NCI-H226
NCI-H460 = system: NCI-H460
ACHN = system: ACHN
786-0 = system: 786-0
SK-MEL-2 = system: SK-MEL-2
PC-3 = system: PC-3
HL-60 = system: HL-60
MDA-N = system: MDA-N
Hs-578T = system: Hs-578T
NCI-H23 = system: NCI-H23
SR = system: SR
SF-295 = system: SF-295
T47D = system: T47D
MCF7 = system: MCF7
OVCAR-8 = system: OVCAR-8
RXF 393 = system: RXF 393
IGROV-1 = system: IGROV-1
M14 = system: M14
SK-MEL-28 = system: SK-MEL-28
HCT-15 = system: HCT-15
TK-10 = system: TK-10
HOP-62 = system: HOP-62
UO-31 = system: UO-31
HT-29 = system: HT-29
U-251 = system: U-251
COLO 205 = system: COLO 205
NCI/ADR-RES = system: NCI/ADR-RES
MDA-MB-435 = system: MDA-MB-435
A549 = system: A549
SK-MEL-5 = system: SK-MEL-5
K562 = system: K562
MDA-MB-231 = system: MDA-MB-231
SK-OV-3 = system: SK-OV-3
SNB-19 = system: SNB-19
HOP-92 = system: HOP-92
UACC-257 = system: UACC-257
HCT-116 = system: HCT-116
NCI-H522 = system: NCI-H522
OVCAR-5 = system: OVCAR-5
EKVX = system: EKVX
A498 = system: A498
DU-145 = system: DU-145
SF-268 = system: SF-268
SN12C = system: SN12C
MOLT-4 = system: MOLT-4
CAKI-1 = system: CAKI-1
HCC 2998 = system: HCC 2998
BT-549 = system: BT-549
LOX IMVI = system: LOX IMVI
KM12 = system: KM12
CCRF-CEM = system: CCRF-CEM
Malme-3M = system: Malme-3M
OVCAR-4 = system: OVCAR-4
OVCAR-3 = system: OVCAR-3
UACC-62 = system: UACC-62
SW-620 = system: SW-620
SF-539 = system: SF-539
RPMI-8226 = system: RPMI-8226

SMILES: Oc1cccc(-c2cn3cc(C(F)(F)F)ccc3n2)c1
- GI50 (NCI-H226): 46.9 µM (inactive)
- GI50 (NCI-H460): 26.1 µM (inactive)
- GI50 (ACHN): 39.9 µM (inactive)
- GI50 (786-0): 54.6 µM (inactive)
- GI50 (SK-MEL-2): 39.5 µM (inactive)
- GI50 (PC-3): 32.2 µM (inactive)
- GI50 (HL-60): 32.6 µM (inactive)
- GI50 (MDA-N): 35.7 µM (inactive)
- GI50 (Hs-578T): 74.6 µM (inactive)
- GI50 (NCI-H23): 42.7 µM (inactive)
- GI50 (SR): 31.6 µM (inactive)
- GI50 (SF-295): 24.5 µM (inactive)
- GI50 (T47D): 2.39 µM (inactive)
- GI50 (MCF7): 15.4 µM (inactive)
- GI50 (OVCAR-8): 27.8 µM (inactive)
- GI50 (RXF 393): 13.8 µM (inactive)
- GI50 (IGROV-1): 20.4 µM (inactive)
- GI50 (M14): 39.3 µM (inactive)
- GI50 (SK-MEL-28): 61.9 µM (inactive)
- GI50 (HCT-15): 29.2 µM
- GI50 (TK-10): 22.5 µM (inactive)
- GI50 (HOP-62): 48.8 µM (inactive)
- GI50 (UO-31): 0.338 µM (active)
- GI50 (HT-29): 24.1 µM (inactive)
- GI50 (U-251): 50.6 µM (inactive)
- GI50 (COLO 205): 39.2 µM (inactive)
- GI50 (NCI/ADR-RES): 25.9 µM (inactive)
- GI50 (MDA-MB-435): 32 µM (inactive)
- GI50 (A549): 28.6 µM (inactive)
- GI50 (SK-MEL-5): 22.5 µM (inactive)
- GI50 (K562): 30.5 µM (inactive)
- GI50 (MDA-MB-231): 43.7 µM (inactive)
- GI50 (SK-OV-3): 33.4 µM (inactive)
- GI50 (SNB-19): 70.1 µM (inactive)
- GI50 (HOP-92): 55.2 µM (inactive)
- GI50 (UACC-257): 22.9 µM (inactive)
- GI50 (HCT-116): 39.9 µM (inactive)
- GI50 (NCI-H522): 13.5 µM (inactive)
- GI50 (OVCAR-5): 37.2 µM (inactive)
- GI50 (EKVX): 17.5 µM (inactive)
- GI50 (A498): 37.5 µM (inactive)
- GI50 (DU-145): 18.6 µM (inactive)
- GI50 (SF-268): 38.8 µM (inactive)
- GI50 (SN12C): 47.9 µM (inactive)
- GI50 (MOLT-4): 17.1 µM (inactive)
- GI50 (CAKI-1): 47.9 µM (inactive)
- GI50 (HCC 2998): 22.6 µM (inactive)
- GI50 (BT-549): 37.2 µM (inactive)
- GI50 (LOX IMVI): 32.6 µM (inactive)
- GI50 (KM12): 28.6 µM (inactive)
- GI50 (CCRF-CEM): 24.1 µM (inactive)
- GI50 (Malme-3M): 27.9 µM (inactive)
- GI50 (OVCAR-4): 22.1 µM (inactive)
- GI50 (OVCAR-3): 19.5 µM (inactive)
- GI50 (UACC-62): 30.7 µM (inactive)
- GI50 (SW-620): 67.8 µM (inactive)

SMILES: C[C@H]1CC[C@H]([C@@H](C)[C@H]2[C@@H](O)C[C@H]3[C@@H]4CC[C@H]5C[C@@H](O)CC[C@]5(C)[C@H]4CC[C@]23C)NC1
- GI50 (NCI-H226): 18.1 µM (inactive)
- GI50 (NCI-H460): 20.2 µM (inactive)
- GI50 (ACHN): 21.2 µM (inactive)
- GI50 (786-0): 18.9 µM (inactive)
- GI50 (SK-MEL-2): 19.6 µM (inactive)
- GI50 (PC-3): 12.4 µM (inactive)
- GI50 (HL-60): 4.45 µM (inactive)
- GI50 (MDA-N): 21.3 µM (inactive)
- GI50 (Hs-578T): 27.1 µM (inactive)
- GI50 (NCI-H23): 15.5 µM (inactive)
- GI50 (SR): 6.34 µM (inactive)
- GI50 (SF-295): 16.9 µM (inactive)
- GI50 (T47D): 12.6 µM (inactive)
- GI50 (MCF7): 21.9 µM (inactive)
- GI50 (OVCAR-8): 15 µM (inactive)
- GI50 (RXF 393): 20.6 µM (inactive)
- GI50 (IGROV-1): 19.2 µM (inactive)
- GI50 (M14): 24.2 µM (inactive)
- GI50 (SK-MEL-28): 18.7 µM (inactive)
- GI50 (HCT-15): 17 µM
- GI50 (TK-10): 18.3 µM (inactive)
- GI50 (HOP-62): 23.7 µM (inactive)
- GI50 (UO-31): 13.9 µM (inactive)
- GI50 (HT-29): 18.1 µM (inactive)
- GI50 (U-251): 15.8 µM (inactive)
- GI50 (COLO 205): 19.6 µM (inactive)
- GI50 (NCI/ADR-RES): 14.7 µM (inactive)
- GI50 (MDA-MB-435): 16.7 µM (inactive)
- GI50 (A549): 17 µM (inactive)
- GI50 (SK-MEL-5): 21.3 µM (inactive)
- GI50 (MDA-MB-231): 21.2 µM (inactive)
- GI50 (SK-OV-3): 15.9 µM (inactive)
- GI50 (SNB-19): 23.5 µM (inactive)
- GI50 (HOP-92): 14.5 µM (inactive)
- GI50 (UACC-257): 18.4 µM (inactive)
- GI50 (HCT-116): 15.6 µM (inactive)
- GI50 (NCI-H522): 15.8 µM (inactive)
- GI50 (OVCAR-5): 19.3 µM (inactive)
- GI50 (EKVX): 16.3 µM (inactive)
- GI50 (SF-539): 23.6 µM (inactive)
- GI50 (A498): 17.4 µM (inactive)
- GI50 (DU-145): 16.2 µM (inactive)
- GI50 (SF-268): 23.1 µM (inactive)
- GI50 (SN12C): 16.3 µM (inactive)
- GI50 (MOLT-4): 9.66 µM (inactive)
- GI50 (CAKI-1): 16.1 µM (inactive)
- GI50 (HCC 2998): 18.6 µM (inactive)
- GI50 (BT-549): 17.5 µM (inactive)
- GI50 (LOX IMVI): 19.2 µM (inactive)
- GI50 (KM12): 15.2 µM (inactive)
- GI50 (CCRF-CEM): 5.53 µM (inactive)
- GI50 (Malme-3M): 15.7 µM (inactive)
- GI50 (OVCAR-4): 15.8 µM (inactive)
- GI50 (RPMI-8226): 7.31 µM (inactive)
- GI50 (OVCAR-3): 18.7 µM (inactive)
- GI50 (UACC-62): 14.6 µM (inactive)
- GI50 (SW-620): 18.7 µM (inactive)
